Laboratory results taken from US20240368676A1, “KITS FOR DETECTING ONE OR MORE TARGET ANALYTES IN A SAMPLE AND METHODS OF MAKING AND USING THE SAME” (Meso Scale Technologies, LLC., priority 2020, published 2024).
Read-outs that look alike come from different tables or passages of the source.

Key:
rs1051730 (CHRNA3 D398N) = assay: Lung cancer SNP panel OLA on PCR-amplified cell line DNA; conditions: PCR-amplified DNA from HIL-60 cell line
Experimental: (§1) The probe sequences used for each mutation are provided in Tables 42 (upstream) and 43 (downstream), below.
(§2) To test the probes for each mutation, probes from either the 1st or 2nd strand were chosen and tested against DNA extracted from a HIL-60 cell line. DNA was extracted using the Gentra Puregene Cell Kit (Qiagen Cat #158388) and 10 ng DNA was amplified using the MyTaq HS Master Mix (Bioline Cat #BIO-25045) and assay-specific PCR forward and revers primers, shown in Tables 44 and 45, respectively.
(§3) Following amplification, OLA was performed as described in Example 7 and the frequency of WT and Mutant alleles was determined.

miR-122 [1] = assay: miRNA detection using an RNase protection assay (chimeric DNA/RNA probe, ECL); conditions: synthetic miR-122 miRNA
Description: An RNase protection assay can be used for miRNA quantification. In the assay, a DNA/RNA chimeric probe is used that contains an oligonucleotide tag sequence that is complementary a capture oligonucleotide sequence and a miRNA complementary sequence. The oligonucleotide tag sequence can be a single stranded DNA (ssDNA) sequence included on the 5′ end of the chimeric probe and the miRNA complementary sequence can be a single stranded RNA (ssRNA) sequence at the 3′ end of the chimeric probe, along with a terminal 3′ biotin.
Briefly, miRNA can be detected as follows: • 1). Hybridize miRNA to the chimeric probe in a thermal cycler to form a hybridization product; • 2). Block assay plate using one or more known blocking agent; • 3). Add hybridization product with formamide to the blocked assay plate under conditions in which the oligonucleotide tag sequence of the hybridization product can hybridize to the capture oligonucleotides on the assay plate. Incubate at 37° C.; • 4). Perform on-plate digestion of ssRNA with RNase A or RNase I (30° C.-37° C.) to digest the following: • a). ssRNA that has not been hybridized to the probe; • b). Probe hybridized to the plate without the complementary miRNA; and • c). […] Add Read Buffer B to assay plate and measure ECL signal generation with MSD Imager; and • 7). Compare the results against a calibration curve for quantification. […]

miR-122 [2] = conditions: reported by Rissin et al., PLOS One (2017); cited from earlier work
[3] = system: spot with the capture oligonucleotide with SEQ ID NO: 5; assay: Comparison of blocking conditions for preparing arrays (cross-reactivity from cross-contamination); type: binding
Experimental: Blocking conditions for removing excess capture oligonucleotides from arrays were compared. Plates with printed arrays were prepared as described in Example 2 and blocked and washed as described in Example 4, except for varying the composition of the blocking solution. Specificity of the arrays was then characterized as described in Example 4.

[4] = system: rs212090 (ABCC1 c.*866T>A); assay: Lung cancer SNP panel OLA on PCR-amplified cell line DNA; conditions: PCR-amplified DNA from HIL-60 cell line
Experimental: as §1, §2, §3

[5] = system: rs8034191 (LOC123688 or HYKK c.337+256T>C); assay: as above; conditions: PCR-amplified DNA from HIL-60 cell line
Experimental: as §1, §2, §3

[6] = system: rs17879961 (CHEK2 c.599T>C); assay: as above; conditions: PCR-amplified DNA from HIL-60 cell line
Experimental: as §1, §2, §3

rs3842 (ABCB1 c.*193A>G) = assay: as above; conditions: PCR-amplified DNA from HIL-60 cell line
Experimental: as §1, §2, §3

rs1801133 (MTHFR C677T) = assay: as above; conditions: PCR-amplified DNA from HIL-60 cell line
Experimental: as §1, §2, §3

rs2273535 (AURKA F31J) = assay: as above; conditions: PCR-amplified DNA from HIL-60 cell line
Experimental: as §1, §2, §3

[7] = system: rs1801270 (CDKN1A c.93C>A); assay: as above; conditions: PCR-amplified DNA from HIL-60 cell line
Experimental: as §1, §2, §3

## CHRNA3 rs1051730 (DNA CGGATGTACAGCGAGTATGTG; listed as DNA, chemistry not given here)
rs1051730 (CHRNA3 D398N)
  % Mutant: 0.1%
  % Wild-type: 99.9%
  Genotype: Homozygous (WT) (Measured mutation percentages <20% were classified as homozygous wildtype samples)

## miR-122: synthetic miR-122 miRNA, target sequence in Table 47 (UGGAGUGUGACAAUGGUGUUUG; listed as RNA, chemistry not fully specified; the letters are possibly those of the target site)
miR-122 [1]
  concentration detected: 160 fM
miR-122 [2]
  concentration detected: 500 fM

## N[C@@H](CS)C(=O)O [cysteine]
[3]; cysteine added to the Tris/Triton formulation
  cross-reactivity: ≤ 0.01%
[3]; cysteine concentrations ranging from 5 to 50 to 500 mM, separate experiments
  blocking effectiveness: effective at blocking

## ABCC1 rs212090 (DNA AGGCCATCTCCTTAATATTTACCC; listed as DNA, chemistry not given here)
[4]
  % Mutant: 48.6%
  % Wild-type: 51.4%
  Genotype: Heterozygous (mutation percentages between 30% and 70% were classified as heterozygous (50% mutation))

## LOC123688 rs8034191 (DNA CCCTGATTTCCACAAGTCC; listed as DNA, chemistry not given here)
[5]
  % Mutant: 1.0%
  % Wild-type: 99.0%
  Genotype: Homozygous (WT) (Measured mutation percentages <20% were classified as homozygous wildtype samples)

## CHEK2 rs17879961 (DNA TCCATTGCCACTGTGATCTTC; listed as DNA, chemistry not given here)
[6]
  % Mutant: 0.8%
  % Wild-type: 99.2%
  Genotype: Homozygous (WT) (Measured mutation percentages <20% were classified as homozygous wildtype samples)

## ABCB1 rs3842 (DNA AGCAAGGCAGTCAGTTACAG; listed as DNA, chemistry not given here)
rs3842 (ABCB1 c.*193A>G)
  % Mutant: 52.4%
  % Wild-type: 47.6%
  Genotype: Heterozygous (mutation percentages between 30% and 70% were classified as heterozygous (50% mutation))

## MTHFR rs180113 (DNA CTTCACAAAGCGGAAGAATGTG; listed as DNA, chemistry not given here)
rs1801133 (MTHFR C677T)
  % Mutant: 42.8%
  % Wild-type: 57.2%
  Genotype: Heterozygous (mutation percentages between 30% and 70% were classified as heterozygous (50% mutation))

## AURKA rs2273535 (DNA CTTCCATTCTAGGCTACAGCTC; listed as DNA, chemistry not given here)
rs2273535 (AURKA F31J)
  % Mutant: 0.5%
  % Wild-type: 99.5%
  Genotype: Homozygous (WT) (Measured mutation percentages <20% were classified as homozygous wildtype samples)

## CDKN1A rs1801270 (DNA TCGAAGTTCCATCGCTCAC; listed as DNA, chemistry not given here)
[7]
  % Mutant: 0.1%
  % Wild-type: 99.9%
  Genotype: Homozygous (WT) (Measured mutation percentages <20% were classified as homozygous wildtype samples)
